Data reported in ChEMBL document CHEMBL1201862, “PubChem BioAssay data set” (2004).
Active and inactive are the calls of the source.

Tests used:
HeLa = assay: ATP-based viability loss in HeLa cells – cell-based, CellTiter-Glo luminescence, cherry-pick samples, cytotoxicity control for MITF activator project, dose response (AID 540259); assay type: functional; conditions: Homo sapiens
HEK293 [1] = assay: cells; conditions: Homo sapiens
HEK293 [2] = assay: cells; conditions: Homo sapiens; remark: listed apart in the source
Escherichia coli = assay: microbe, parasite or virus in culture
Exodeoxyribonuclease V = biological target: T1, Exodeoxyribonuclease V (Escherichia coli (strain K12), UniProt P04993+P07648+P08394); assay: RecBCD inhibition via phage-restricted bacterial growth – absorbance, V66 E. coli, mutant T4 phage, counter-screen for AddAB inhibitor project, dose response (AID 492957); assay type: functional, cell-based, Escherichia coli str. K-12 substr. MG1655
T1 sequence (P04993 whole entry): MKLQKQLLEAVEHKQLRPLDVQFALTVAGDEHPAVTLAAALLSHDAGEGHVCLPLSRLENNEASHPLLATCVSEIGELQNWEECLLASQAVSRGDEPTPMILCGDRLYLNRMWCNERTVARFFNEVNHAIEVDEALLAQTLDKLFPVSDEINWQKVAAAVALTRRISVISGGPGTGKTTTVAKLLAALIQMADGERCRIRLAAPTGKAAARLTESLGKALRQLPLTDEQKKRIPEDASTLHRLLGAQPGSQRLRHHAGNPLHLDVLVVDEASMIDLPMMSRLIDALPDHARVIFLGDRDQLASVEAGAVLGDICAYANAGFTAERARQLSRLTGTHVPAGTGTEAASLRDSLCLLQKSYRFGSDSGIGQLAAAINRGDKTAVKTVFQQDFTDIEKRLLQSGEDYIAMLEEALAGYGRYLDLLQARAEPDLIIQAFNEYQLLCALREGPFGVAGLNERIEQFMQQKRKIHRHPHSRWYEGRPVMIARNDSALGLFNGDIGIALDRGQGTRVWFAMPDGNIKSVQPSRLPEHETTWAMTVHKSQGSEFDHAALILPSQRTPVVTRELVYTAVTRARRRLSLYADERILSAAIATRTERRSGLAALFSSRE
T1 sequence (P07648 whole entry): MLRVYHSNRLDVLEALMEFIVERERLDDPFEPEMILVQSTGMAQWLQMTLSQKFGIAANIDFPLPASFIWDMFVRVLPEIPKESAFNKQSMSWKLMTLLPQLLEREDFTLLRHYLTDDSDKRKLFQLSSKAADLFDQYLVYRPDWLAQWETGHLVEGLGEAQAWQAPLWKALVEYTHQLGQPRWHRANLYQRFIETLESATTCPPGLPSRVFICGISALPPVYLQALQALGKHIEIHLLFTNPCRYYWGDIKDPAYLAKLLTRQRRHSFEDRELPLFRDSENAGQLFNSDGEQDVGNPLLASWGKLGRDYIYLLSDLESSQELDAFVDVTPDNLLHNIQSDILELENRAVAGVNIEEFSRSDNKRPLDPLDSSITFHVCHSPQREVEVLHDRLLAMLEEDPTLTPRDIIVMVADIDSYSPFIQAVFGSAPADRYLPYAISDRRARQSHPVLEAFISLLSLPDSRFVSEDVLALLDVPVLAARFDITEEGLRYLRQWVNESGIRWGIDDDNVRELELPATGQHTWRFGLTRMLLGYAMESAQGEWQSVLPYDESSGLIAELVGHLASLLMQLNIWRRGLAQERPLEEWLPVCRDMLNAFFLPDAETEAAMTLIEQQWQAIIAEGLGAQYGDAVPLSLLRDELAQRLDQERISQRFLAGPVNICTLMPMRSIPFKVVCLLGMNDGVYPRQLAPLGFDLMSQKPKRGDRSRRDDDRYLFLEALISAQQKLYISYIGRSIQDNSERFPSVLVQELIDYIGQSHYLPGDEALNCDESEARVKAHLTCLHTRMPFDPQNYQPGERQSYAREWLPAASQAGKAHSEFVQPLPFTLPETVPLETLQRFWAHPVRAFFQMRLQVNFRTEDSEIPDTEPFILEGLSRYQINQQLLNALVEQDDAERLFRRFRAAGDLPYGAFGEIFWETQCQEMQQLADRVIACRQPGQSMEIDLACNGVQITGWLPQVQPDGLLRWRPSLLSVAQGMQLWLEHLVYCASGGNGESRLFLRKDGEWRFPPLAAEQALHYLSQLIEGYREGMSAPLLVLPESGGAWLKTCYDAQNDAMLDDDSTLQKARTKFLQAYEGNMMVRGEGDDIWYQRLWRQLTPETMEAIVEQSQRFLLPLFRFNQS
T1 sequence (P08394 whole entry): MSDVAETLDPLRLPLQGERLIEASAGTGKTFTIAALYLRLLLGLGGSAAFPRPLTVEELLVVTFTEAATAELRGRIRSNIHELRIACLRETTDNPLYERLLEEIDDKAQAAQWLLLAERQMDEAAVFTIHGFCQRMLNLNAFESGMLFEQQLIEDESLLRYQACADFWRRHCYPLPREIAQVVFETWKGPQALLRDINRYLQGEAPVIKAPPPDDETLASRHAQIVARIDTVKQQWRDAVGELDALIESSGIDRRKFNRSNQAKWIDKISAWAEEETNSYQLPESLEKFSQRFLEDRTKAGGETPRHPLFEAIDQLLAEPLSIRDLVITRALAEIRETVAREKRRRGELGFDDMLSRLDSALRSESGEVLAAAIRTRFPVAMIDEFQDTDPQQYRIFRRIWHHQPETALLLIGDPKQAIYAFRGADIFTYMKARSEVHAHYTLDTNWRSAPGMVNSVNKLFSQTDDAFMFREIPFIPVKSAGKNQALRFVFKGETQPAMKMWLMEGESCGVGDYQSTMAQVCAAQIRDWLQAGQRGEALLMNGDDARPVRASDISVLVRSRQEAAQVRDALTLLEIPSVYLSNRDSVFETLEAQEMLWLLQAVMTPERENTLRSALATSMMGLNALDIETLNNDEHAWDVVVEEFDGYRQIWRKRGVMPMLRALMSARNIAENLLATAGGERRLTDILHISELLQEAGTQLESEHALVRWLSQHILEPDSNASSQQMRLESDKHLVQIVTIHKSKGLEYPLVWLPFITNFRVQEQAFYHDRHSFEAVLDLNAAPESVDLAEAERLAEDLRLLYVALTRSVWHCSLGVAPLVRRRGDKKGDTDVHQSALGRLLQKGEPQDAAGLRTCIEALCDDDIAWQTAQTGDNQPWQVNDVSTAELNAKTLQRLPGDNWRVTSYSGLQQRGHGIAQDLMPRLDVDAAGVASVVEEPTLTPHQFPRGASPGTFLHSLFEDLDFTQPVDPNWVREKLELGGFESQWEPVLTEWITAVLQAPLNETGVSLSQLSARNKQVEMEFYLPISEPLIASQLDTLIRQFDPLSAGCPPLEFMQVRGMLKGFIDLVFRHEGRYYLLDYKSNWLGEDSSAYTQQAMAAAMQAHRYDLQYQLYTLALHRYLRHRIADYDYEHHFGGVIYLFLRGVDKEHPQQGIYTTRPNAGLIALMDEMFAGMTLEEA

[3] = Counterscreen for AddAB inhibitors: absorbance-based bacterial cell-based high throughput dose response assay for inhibitors of bacterial viability. [Related pubchem assays (depositor defined):AID435030, AID449728, AID449731, AID488942, AID488955, AID488956]; assay type: functional
Cytochrome P450 2C19 = Cytochrome P450 2C19 (Homo sapiens, UniProt P33261); assay: Cytochrome panel assay with activity outcomes. Panel member name: p450-cyp2c19 Compounds with AC50 equal or less than 10 uM are considered active; assay type: functional
Chain of Cytochrome P450 2C19 (P33261 whole entry): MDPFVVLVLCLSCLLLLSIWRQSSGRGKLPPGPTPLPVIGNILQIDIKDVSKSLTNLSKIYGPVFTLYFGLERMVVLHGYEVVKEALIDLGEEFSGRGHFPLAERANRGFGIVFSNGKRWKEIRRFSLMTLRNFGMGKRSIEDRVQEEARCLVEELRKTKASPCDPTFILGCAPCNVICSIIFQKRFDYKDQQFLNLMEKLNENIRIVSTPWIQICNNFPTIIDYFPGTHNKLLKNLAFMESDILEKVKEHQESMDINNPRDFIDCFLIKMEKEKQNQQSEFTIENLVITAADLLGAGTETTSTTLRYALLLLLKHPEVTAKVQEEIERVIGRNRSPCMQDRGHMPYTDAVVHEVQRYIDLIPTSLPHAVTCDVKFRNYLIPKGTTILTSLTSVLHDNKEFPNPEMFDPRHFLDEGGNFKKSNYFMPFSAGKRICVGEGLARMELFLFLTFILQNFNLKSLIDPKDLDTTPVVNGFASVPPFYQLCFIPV

Cytochrome P450 3A4 = Cytochrome P450 3A4 (Homo sapiens, UniProt P08684);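 also: CYP3A4 tested as one member of a cytochrome P450 panel screen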
Chain of Cytochrome P450 3A4 (P08684 whole entry): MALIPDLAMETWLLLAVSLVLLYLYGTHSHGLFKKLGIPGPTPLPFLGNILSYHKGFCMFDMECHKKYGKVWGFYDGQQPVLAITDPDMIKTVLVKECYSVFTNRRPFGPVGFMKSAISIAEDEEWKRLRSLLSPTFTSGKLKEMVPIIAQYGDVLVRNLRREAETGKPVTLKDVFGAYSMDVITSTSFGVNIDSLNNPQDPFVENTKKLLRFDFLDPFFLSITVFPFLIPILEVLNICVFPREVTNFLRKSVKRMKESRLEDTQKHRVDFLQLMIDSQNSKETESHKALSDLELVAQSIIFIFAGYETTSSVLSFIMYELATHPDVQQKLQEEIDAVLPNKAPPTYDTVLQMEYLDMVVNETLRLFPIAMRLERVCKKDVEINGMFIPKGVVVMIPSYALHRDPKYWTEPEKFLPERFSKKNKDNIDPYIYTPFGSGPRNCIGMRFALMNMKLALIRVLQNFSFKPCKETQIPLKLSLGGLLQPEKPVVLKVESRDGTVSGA

Paired box protein Pax-8 = Paired box protein Pax-8 (Homo sapiens, UniProt Q06710); assay: PAX8 transcriptional activity inhibition in RMG-I – RMG-I cells, luciferase, cherry-pick, dose response (AID 687027); assay type: functional, cell-based;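 also: luciferase reporter driven by Pax8 target thyroperoxidase promoter measured by SteadyGlo luminescence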
Chain of Paired box protein Pax-8 (Q06710 whole entry): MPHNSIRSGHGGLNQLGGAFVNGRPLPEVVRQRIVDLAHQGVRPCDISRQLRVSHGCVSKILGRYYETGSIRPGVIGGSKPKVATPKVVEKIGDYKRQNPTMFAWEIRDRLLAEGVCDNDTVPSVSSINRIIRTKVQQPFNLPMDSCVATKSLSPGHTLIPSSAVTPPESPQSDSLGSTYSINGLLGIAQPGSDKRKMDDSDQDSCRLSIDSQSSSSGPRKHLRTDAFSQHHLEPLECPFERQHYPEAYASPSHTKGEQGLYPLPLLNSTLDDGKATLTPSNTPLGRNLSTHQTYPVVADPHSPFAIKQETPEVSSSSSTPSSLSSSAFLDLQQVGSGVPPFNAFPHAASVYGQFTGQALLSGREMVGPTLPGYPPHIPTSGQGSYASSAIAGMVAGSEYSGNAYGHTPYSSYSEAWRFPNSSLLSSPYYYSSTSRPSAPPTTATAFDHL

[4] = A cytotoxicity screen of small molecule inhibitors of the PhoP region in Salmonella typhi identified in the primary screen. [Related pubchem assays: 1850, 1864, 1985 ]; assay type: functional
[5] = biological target: Disintegrin and metalloproteinase domain-containing protein 17 (Homo sapiens, UniProt P78536); assay: exosite inhibitors of ADAM17, dose response, biochemical (AID 743260)
Chain of Disintegrin and metalloproteinase domain-containing protein 17 (P78536 whole entry, the tested form may be a part): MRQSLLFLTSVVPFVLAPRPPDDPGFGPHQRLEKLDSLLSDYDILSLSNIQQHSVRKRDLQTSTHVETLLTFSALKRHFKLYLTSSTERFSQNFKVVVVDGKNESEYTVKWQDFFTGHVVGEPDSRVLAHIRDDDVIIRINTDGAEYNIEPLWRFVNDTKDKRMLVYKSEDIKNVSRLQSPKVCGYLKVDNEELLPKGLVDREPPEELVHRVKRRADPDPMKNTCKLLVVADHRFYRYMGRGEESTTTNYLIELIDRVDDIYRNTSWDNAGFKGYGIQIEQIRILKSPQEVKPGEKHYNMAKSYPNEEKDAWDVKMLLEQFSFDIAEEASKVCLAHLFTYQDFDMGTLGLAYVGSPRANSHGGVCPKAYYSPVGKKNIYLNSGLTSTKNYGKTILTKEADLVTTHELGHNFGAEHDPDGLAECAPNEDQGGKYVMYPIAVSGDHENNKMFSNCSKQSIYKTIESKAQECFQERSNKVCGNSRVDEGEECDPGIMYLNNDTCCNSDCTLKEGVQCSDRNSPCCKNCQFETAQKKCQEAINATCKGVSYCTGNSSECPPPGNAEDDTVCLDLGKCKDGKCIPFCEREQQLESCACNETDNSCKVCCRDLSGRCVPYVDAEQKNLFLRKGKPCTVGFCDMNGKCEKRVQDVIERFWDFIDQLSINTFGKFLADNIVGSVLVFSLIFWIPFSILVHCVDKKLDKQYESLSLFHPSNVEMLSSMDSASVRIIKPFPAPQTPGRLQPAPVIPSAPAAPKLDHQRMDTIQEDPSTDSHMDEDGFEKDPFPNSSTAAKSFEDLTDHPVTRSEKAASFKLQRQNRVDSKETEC

Cytochrome P450 1A2 = biological target: T2, Cytochrome P450 1A2 (Homo sapiens, UniProt P05177);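 also: PubChem cytochrome P450 panel assay, CYP1A2 panel member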
T2 sequence (P05177 whole entry): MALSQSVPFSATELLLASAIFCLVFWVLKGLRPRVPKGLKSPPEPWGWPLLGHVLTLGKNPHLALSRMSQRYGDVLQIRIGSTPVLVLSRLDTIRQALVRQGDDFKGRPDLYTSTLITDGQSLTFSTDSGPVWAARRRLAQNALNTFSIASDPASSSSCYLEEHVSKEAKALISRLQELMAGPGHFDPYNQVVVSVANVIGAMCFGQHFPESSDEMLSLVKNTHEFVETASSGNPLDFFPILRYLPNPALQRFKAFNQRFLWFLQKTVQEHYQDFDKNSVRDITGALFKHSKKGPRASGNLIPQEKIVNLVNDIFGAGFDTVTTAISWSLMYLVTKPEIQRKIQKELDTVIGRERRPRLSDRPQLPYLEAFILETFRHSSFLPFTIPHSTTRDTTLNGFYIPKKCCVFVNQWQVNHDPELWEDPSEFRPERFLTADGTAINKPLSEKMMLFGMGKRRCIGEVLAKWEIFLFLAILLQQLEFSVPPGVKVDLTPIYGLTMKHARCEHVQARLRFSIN

Cytochrome P450 2C9 = Cytochrome P450 2C9 (Homo sapiens, UniProt P11712)
Chain of Cytochrome P450 2C9 (P11712 whole entry): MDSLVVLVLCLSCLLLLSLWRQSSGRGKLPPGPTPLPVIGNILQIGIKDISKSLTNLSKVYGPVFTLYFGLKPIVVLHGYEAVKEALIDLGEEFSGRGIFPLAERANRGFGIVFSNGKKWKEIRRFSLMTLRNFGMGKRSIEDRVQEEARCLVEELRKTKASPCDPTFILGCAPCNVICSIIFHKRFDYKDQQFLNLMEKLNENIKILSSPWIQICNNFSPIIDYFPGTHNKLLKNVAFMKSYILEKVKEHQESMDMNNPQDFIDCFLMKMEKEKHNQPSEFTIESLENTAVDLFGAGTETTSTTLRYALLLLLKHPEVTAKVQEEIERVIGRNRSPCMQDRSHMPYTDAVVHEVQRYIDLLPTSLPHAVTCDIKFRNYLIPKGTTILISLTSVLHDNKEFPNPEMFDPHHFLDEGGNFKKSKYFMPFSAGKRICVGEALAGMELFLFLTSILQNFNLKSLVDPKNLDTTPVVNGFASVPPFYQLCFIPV

With `CCC(=O)NCCc1nc2cc(NC(=O)c3ccc(Cl)cc3)ccc2n1C` the AC50 (HeLa) was 250 µM (active).
In the case of `Cc1ccc(NC(=O)CSCC(=O)Nc2ccccc2N2CCCCC2)cc1`, the EC50 (HEK293 [1]) was > 59.6 µM (inactive) and the EC50 (HEK293 [2]) was > 59.6 µM (inactive).
In the case of `COc1ccc(N(CC(=O)NCc2ccc(Cl)cc2)S(=O)(=O)c2ccccc2[N+](=O)[O-])c(OC)c1`, the AC50 (Escherichia coli) was 23.3 µM (active).
With `O=C(CCc1nc2cccnc2n1Cc1ccccc1)N1CCOCC1` the AC50 (Escherichia coli) was 28.4 µM (active).
With `O=C(CNc1cccc(F)c1)N1CCc2ccccc2C1` the AC50 (HeLa) was 157 µM (active).
For `FC(F)Oc1ccc(NC(S)=NCc2nc3ccccc3[nH]2)cc1`, the IC50 (Exodeoxyribonuclease V) was > 119 µM (inactive) and the IC50 [3] was > 119 µM (inactive).
In the case of `Cc1ccc(C)c(N2CCN(c3ccc4cc(S(=O)(=O)N5CCCCC5)ccc4n3)CC2)c1`, the AC50 (Escherichia coli) was 27.6 µM (active).
For `Cc1cc(C(=O)CN2C(=O)NC3(CCCCC3C)C2=O)c(C)n1Cc1cccs1` (centres undefined), the AC50 (HeLa) was > 350 µM (inactive).
With `COc1ccccc1NC(=O)N1CCC(c2nnc(SCC(N)=O)n2C)CC1` the AC50 (Cytochrome P450 2C19) was “inconclusive” and the AC50 (Cytochrome P450 3A4) was “inconclusive”.
For `CCOC(=O)c1c(CSc2ccccc2)n(C)c2cc(Br)c(O)c(CN(C)C)c12` [UMIFENOVIR], the EC50 (HEK293 [1]) was > 59.7 µM (inactive) and the EC50 (HEK293 [2]) was > 59.7 µM (inactive).
In the case of `CCCCCC(CC(=O)NO)C(=O)NC(C(=O)N1CCCC1CO)C(C)C` (centres undefined), the AC50 (Paired box protein Pax-8) was 5.27 µM (active), the IC50 (Exodeoxyribonuclease V) was > 39.5 µM (inactive) and the EC50 [4] was > 50 µM (active). The IC50 [5] was 3.59 µM (active) and the IC50 [3] was 77.6 µM (inactive).
In the case of `CCNc1ncc2nc(-c3ccc(Cl)cc3)c(=O)n(Cc3ccc(F)cc3)c2n1`, the AC50 (Cytochrome P450 2C19) was “inconclusive”, the AC50 (Cytochrome P450 1A2) was 12.6 µM (inconclusive) and the AC50 (Cytochrome P450 3A4) was “inconclusive”.
With `Cc1ccc(S(=O)(=O)NCC2CCC(C(=O)O)CC2)cc1` (centres undefined) the AC50 (Cytochrome P450 2C9) was 0.1 µM (inconclusive) and the AC50 (Cytochrome P450 3A4) was “inconclusive”.
